Experimental data published in PMC8786148, “The effects of magainin 2-derived and rationally designed antimicrobial peptides on Mycoplasma pneumoniae” (PLoS ONE, 2022).
Marks after values point to notes of the source that are not given here.

Key:
[1] = system: M. pneumoniae strains FH, M52, Mac, Bru, and M129-B7; test: Propidium iodide (PI) uptake assay, membrane disruption; format: cell-based, Mycoplasma pneumoniae; settings: five strains; 10 μmol/L AMP; PI 5 μg/mL in PBS; read every 2 min up to 20 min; triplicate
Procedure: We performed the PI uptake assays based on the previously described method with modification for M. pneumoniae. M. pneumoniae strains FH, M52, Mac, Bru, and M129-B7 were cultured as described above. Briefly, the 90 mL culture was done in PPLO-based medium for 6 days to observe the medium color change from red to yellow. The mycoplasma in the culture medium was centrifuged at 11,740g for 30 min at 4°C, and the precipitation was suspended in 20 mL phosphate buffered saline (PBS) by passing through a 60 mm-length 25-gauge needle (Top Corporation, Tokyo, Japan) three times. The suspension was centrifuged again at 11,740g for 30 min at 4°C, and 2.25 mL PBS was added to the precipitation. The 2× mycoplasma suspension was prepared by passing through a 60 mm-length 25-gauge needle five times. When using heat-killed M. pneumoniae (HKMp), the 2× suspension was heated at 95°C for 10 min. The 2× PI assay reaction mix based on PBS containing 20 μmol/L of an antimicrobial peptide or saline, and 10 μg/mL PI (Dojindo, Tokyo, Japan). Each assay was performed with a 96-well black flat-bottomed plate (PerkinElmer, Waltham, MA, USA) using a final cell volume of 100 μL prepared by mixing 2× mycoplasma suspension and 2× PI assay reaction mix at 1:1 in volume ratio. The intercalation fluorescence of PI was measured by using an Infinite 200 Pro F Plex microplate reader (Tecan, Zürich, Switzerland) every 2 min, with an excitation filter at 535 nm (half width: 25 nm) and an emission filter at 620 nm (half width: 20 nm). The averages and standard deviations of the fluorescent intensities was calculated, and normalised by an average fluorescence between 10 and 20 min of HKMp as 100% relative fluorescence, and by a minimum average fluorescence between 0 and 20 min of whole data as 0% relative fluorescence.

Histophilus somni = system: Histophilus somni; parameters: method as in PMID 29771981; settings: bovine pathogen; cited from earlier work
Pasteurella multocida = system: Pasteurella multocida; parameters: method as in PMID 29771981; settings: bovine pathogen; cited from earlier work
Mannheimia haemolytica = system: Mannheimia haemolytica; parameters: method as in PMID 29771981; settings: bovine pathogen; cited from earlier work
M. bovis = settings: cited from earlier work
[2] = previously reported; cited from earlier work
Mycoplasma pneumoniae FH [3] = test: Killing assay, strain FH; settings: for Killing assay result compared with saline / Cell numbers (CFU/mL) after treatment with antimicrobial peptides, killing assay: 30 μmol/L AMP, 3 days; for Killing assay result compared with saline: Welch's t test; for Cell numbers (CFU/mL) after treatment with antimicrobial peptides, killing assay / CFU/mL after treatment, killing assay: triplicate, mean; for Cell numbers (CFU/mL) after treatment with antimicrobial peptides, killing assay: saline 3.59×10^6; for CFU/mL after treatment, killing assay: 3 d at 37°C
Mycoplasma pneumoniae FH [4] = test: Colorimetric assay (absorbance at 560 nm), strain FH; settings: initial 10^5 CFU/mL
Mycoplasma pneumoniae FH [5] = test: Biofilm assay (crystal violet, absorbance at 550 nm), strain FH; settings: initial 10^5 CFU/mL, 0% CO2, 6-8 days at 37°C; for Concentration with statistically significant effect in the biofilm assay: p < 0.005, Shirley-Williams test
[6] = system: Mycoplasma pneumoniae M129-B7; test: Colorimetric and biofilm assays, strain M129-B7; format: cell-based
[7] = system: Mycoplasma pneumoniae Bru; test: Killing assay, strain Bru; settings: 3 days; for Titre (CFU/mL), killing assay: initial 10^6 CFU/mL, triplicate, mean
[8] = system: Mycoplasma pneumoniae Mac; test: Killing assay, strain Mac; settings: 3 days; for Titre (CFU/mL), killing assay: initial 10^6 CFU/mL, triplicate, mean
[9] = system: Mycoplasma pneumoniae M52; test: Killing assay, strain M52; settings: 3 days; for Titre (CFU/mL), killing assay: initial 10^6 CFU/mL, triplicate, mean
[10] = system: Mycoplasma pneumoniae M129-B7; test: Killing assay, strain M129-B7; settings: 3 days; for Titre (CFU/mL), killing assay: initial 10^6 CFU/mL, triplicate, mean
[11] = system: Mycoplasma pneumoniae Bru; test: Colorimetric and biofilm assays, strain Bru
[12] = system: Mycoplasma pneumoniae Mac; test: Colorimetric and biofilm assays, strain Mac
[13] = system: Mycoplasma pneumoniae M52; test: Colorimetric and biofilm assays, strain M52
Staphylococcus aureus = system: Staphylococcus aureus; parameters: method as in PMID 28789896, PMID 31303986, PMID 33369262; settings: previously reported; cited from earlier work
[14] = system: Staphylococcus epidermidis; parameters: method as in PMID 28789896, PMID 31303986, PMID 33369262; settings: previously reported; cited from earlier work
Escherichia coli = system: Escherichia coli; parameters: method as in PMID 28789896, PMID 31303986, PMID 33369262; settings: previously reported; cited from earlier work
Pseudomonas aeruginosa = system: Pseudomonas aeruginosa; parameters: method as in PMID 28789896, PMID 31303986, PMID 33369262; settings: previously reported; cited from earlier work
[15] = system: four strains of M. pneumoniae; test: Biofilm assay, four strains taken together; settings: four strains (Bru, M129-B7, Mac, M52); inferred from enhanced biofilm production below 30 μmol/L
[16] = colorimetric and biofilm assays
[17] = up to 30 μmol/L, Shirley-Williams test

Molecule: H-TVIEVASKMCSKMRLLKGLCKSITKRFLRR-NH2 [NK2A, reference compound]
- PI fluorescence compared with live Mp without peptide [1]: the PI fluorescence arose
- Effective concentration against Histophilus somni (Histophilus somni): 5 µmol/L
- Effective concentration against Pasteurella multocida (Pasteurella multocida): 5 µmol/L
- Effective concentration against Mannheimia haemolytica (Mannheimia haemolytica): 5 µmol/L
- Effective concentration against M. bovis (M. bovis): 20 µmol/L
- Haemolysis (concentration with haemolytic effect) [2]: 5 µmol/L
- Killing assay result compared with saline (Mycoplasma pneumoniae FH [3]; p < 0.005): limited influence on the growth
- Cell numbers (CFU/mL) after treatment with antimicrobial peptides, killing assay (Mycoplasma pneumoniae FH [3]; initial 10^6 CFU/mL): 2.87×10^6 CFU/mL
- Effect in the colorimetric assay (Mycoplasma pneumoniae FH [4]; 0% CO2, up to 30 μmol/L): no difference
- Concentration with statistically significant effect in the biofilm assay (Mycoplasma pneumoniae FH [5]): 30 µmol/L

Molecule: C[C@@H]1CN(c2c(F)c(N)c3c(=O)c(C(=O)O)cn(C4CC4)c3c2F)C[C@H](C)N1 [Sparfloxacin]
- Concentration that completely attenuated the growth ([6]; strain M129-B7, colorimetric and biofilm assays): 0.25 µg/mL
- Change in CFU, killing assay with 1 h incubation (Mycoplasma pneumoniae FH [3]; 1 h treatment, SPFX 0.0625-0.25 μg/mL, AMPs 30 μmol/L, S3 Fig): no change in the CFU values
- Concentration with significant difference in CFU, killing assay (Mycoplasma pneumoniae FH [3]; initial 10^6 CFU/mL, 3 d incubation, p < 0.005): above 0.0625 μg/mL
- CFU/mL after treatment, killing assay (Mycoplasma pneumoniae FH [3]; sparfloxacin 0.0156 μg/mL, initial 10^6 CFU/mL): 6.57×10^6 CFU/mL
- CFU/mL after treatment, killing assay (Mycoplasma pneumoniae FH [3]; sparfloxacin 0.0313 μg/mL, initial 10^6 CFU/mL): 2.33×10^6 CFU/mL
- CFU/mL after treatment, killing assay (Mycoplasma pneumoniae FH [3]; sparfloxacin 0.0625 μg/mL, initial 10^6 CFU/mL): 1.39×10^5 ^a CFU/mL
- CFU/mL after treatment, killing assay (Mycoplasma pneumoniae FH [3]; sparfloxacin 0.125 μg/mL, initial 10^6 CFU/mL): 1.30×10^4 ^a CFU/mL
- CFU/mL after treatment, killing assay (Mycoplasma pneumoniae FH [3]; sparfloxacin 0.25 μg/mL, initial 10^6 CFU/mL): 5.50×10^3 ^a CFU/mL
- Concentration with statistically significant result, killing assay ([7]; p < 0.005): 0.0625 µg/mL
- Titre (CFU/mL), killing assay ([7]; sparfloxacin 0.0156 μg/mL): 2.52×10^6 CFU/mL
- Titre (CFU/mL), killing assay ([7]; sparfloxacin 0.0313 μg/mL): 1.80×10^6 CFU/mL
- Titre (CFU/mL), killing assay ([7]; sparfloxacin 0.0625 μg/mL): 8.41×10^5 ^a CFU/mL
- Titre (CFU/mL), killing assay ([7]; sparfloxacin 0.125 μg/mL): 1.52×10^5 ^a CFU/mL
- Titre (CFU/mL), killing assay ([7]; sparfloxacin 0.25 μg/mL): 1.81×10^4 ^a CFU/mL
- Concentration with statistically significant result, killing assay ([8]; p < 0.005): 0.0625 µg/mL
- Titre (CFU/mL), killing assay ([8]; sparfloxacin 0.0156 μg/mL): 2.66×10^6 CFU/mL
- Titre (CFU/mL), killing assay ([8]; sparfloxacin 0.0313 μg/mL): 1.86×10^6 CFU/mL
- Titre (CFU/mL), killing assay ([8]; sparfloxacin 0.0625 μg/mL): 3.88×10^5 ^a CFU/mL
- Titre (CFU/mL), killing assay ([8]; sparfloxacin 0.125 μg/mL): 2.17×10^4 ^a CFU/mL
- Titre (CFU/mL), killing assay ([8]; sparfloxacin 0.25 μg/mL): 2.90×10^3 ^a CFU/mL
- Concentration with statistically significant result, killing assay ([9]; p < 0.005): 0.0625 µg/mL
- Titre (CFU/mL), killing assay ([9]; sparfloxacin 0.0156 μg/mL): 2.95×10^6 CFU/mL
- Titre (CFU/mL), killing assay ([9]; sparfloxacin 0.0313 μg/mL): 2.02×10^6 CFU/mL
- Titre (CFU/mL), killing assay ([9]; sparfloxacin 0.0625 μg/mL): 8.00×10^5 ^a CFU/mL
- Titre (CFU/mL), killing assay ([9]; sparfloxacin 0.125 μg/mL): 1.99×10^5 ^a CFU/mL
- Titre (CFU/mL), killing assay ([9]; sparfloxacin 0.25 μg/mL): 3.24×10^4 ^a CFU/mL
- Concentration with statistically significant result, killing assay ([10]; p < 0.005): 0.0625 µg/mL
- Titre (CFU/mL), killing assay ([10]; sparfloxacin 0.0156 μg/mL): 3.57×10^6 CFU/mL
- Titre (CFU/mL), killing assay ([10]; sparfloxacin 0.0313 μg/mL): 2.26×10^6 CFU/mL
- Titre (CFU/mL), killing assay ([10]; sparfloxacin 0.0625 μg/mL): 8.73×10^5 ^a CFU/mL
- Titre (CFU/mL), killing assay ([10]; sparfloxacin 0.125 μg/mL): 1.31×10^5 ^a CFU/mL
- Titre (CFU/mL), killing assay ([10]; sparfloxacin 0.25 μg/mL): 1.12×10^4 ^a CFU/mL
- Concentration that completely attenuated the growth [11, 16]: 0.25 µg/mL
- Concentration that completely attenuated the growth [12, 16]: 0.25 µg/mL
- Concentration that completely attenuated the growth [13, 16]: 0.25 µg/mL
- Concentration giving complete repression of the growth, colorimetric assay (Mycoplasma pneumoniae FH [4]; 0% CO2, 6-8 days at 37°C, absorbance 560 nm): higher than 0.0625 μg/mL
- Concentration giving complete repression of the growth, biofilm assay (Mycoplasma pneumoniae FH [5]; crystal violet, absorbance 550 nm): > 0.25 µg/mL

Molecule: H-KKKKKKKKKGGGLLALLALLA-NH2 [Block]
- Biofilm formation at 16 μmol/L ([6]; strain M129-B7, biofilm assay, 16 μmol/L): enhancement of biofilm formation
- Effect in the biofilm assay ([6]; strain M129-B7, up to 30 μmol/L, Shirley-Williams test): no statistically significant effect
- Biofilm amount at 30 μmol/L ([6]; strain printed B129-B7, biofilm assay, 30 μmol/L): no effect
- PI fluorescence compared with live Mp without peptide [1]: highest fluorescence
- MIC, Gram-positive, S. a. (Staphylococcus aureus): 12.5 µM
- MIC, Gram-positive, S. e [14]: 6.25 µM
- MIC, Gram-negative, E. c. (Escherichia coli): 6.25 µM
- MIC, Gram-negative, P. a. (Pseudomonas aeruginosa): 6.25 µM
- Killing assay result compared with saline (Mycoplasma pneumoniae FH [3]; p < 0.005): significant difference
- Cell numbers (CFU/mL) after treatment with antimicrobial peptides, killing assay (Mycoplasma pneumoniae FH [3]; initial 10^6 CFU/mL): 5.91×10^5 CFU/mL
- Titre (CFU/mL), killing assay ([7]; AMP 30 μmol/L, saline 3.48×10^6): 2.32×10^5 ^b CFU/mL
- Titre (CFU/mL), killing assay ([8]; AMP 30 μmol/L, saline 4.19×10^6): 4.30×10^5 ^b CFU/mL
- Titre (CFU/mL), killing assay ([9]; AMP 30 μmol/L, saline 3.62×10^6): 3.89×10^5 ^b CFU/mL
- Titre (CFU/mL), killing assay ([10]; AMP 30 μmol/L, saline 3.79×10^6): 4.84×10^5 ^b CFU/mL
- Concentration of anti-Mp effect indicated by the biofilm assay [15]: > 30 µmol/L
- Biofilm formation at 16 μmol/L ([11]; biofilm assay, 16 μmol/L): enhancement of biofilm formation
- Biofilm amount at 30 μmol/L ([11]; biofilm assay, 30 μmol/L): slight drop in the biofilm amount
- Effect in the biofilm assay [11, 17]: no statistically significant effect
- Biofilm formation at 16 μmol/L ([12]; biofilm assay, 16 μmol/L): enhancement of biofilm formation
- Biofilm amount at 30 μmol/L ([12]; biofilm assay, 30 μmol/L): slight drop in the biofilm amount
- Effect in the biofilm assay [12, 17]: no statistically significant effect
- Biofilm formation at 16 μmol/L ([13]; biofilm assay, 16 μmol/L): enhancement of biofilm formation
- Biofilm amount at 30 μmol/L ([13]; biofilm assay, 30 μmol/L): no effect
- Effect in the biofilm assay [13, 17]: no statistically significant effect
- Concentration with statistically significant effect in the biofilm assay (Mycoplasma pneumoniae FH [5]): 30 µmol/L
